From US20140011755A1, “Cardiac Glycosides for Treating Autoimmune Disease” (Department of Veterans Affairs, priority 2010, published 2014)
Entries after “also recorded” stand apart in the source; their conditions may differ.

Legend:
[1] = tested on: B cell receptor (membrane Ig); assay: B cell receptor mediated B cell proliferation; format: cell-based, mice; conditions: pre-treatment of B cells; anti-IgM stimulation
Experimental: (§1) Activity was monitored by ^3H-thymidine incorporation as a read-out for proliferation. […] Cell type(s) in the splenocyte population responsive to therapeutic concentrations of cardiac glycoside were determined by identifying the population of cells that responded to a dose-dependent decrease in activity in the presence of stimulant, defined as ligand(s) binding to cognate receptor(s). Activity was analyzed by: ^3H-thymidine or BrdU incorporation to monitor proliferation or by ELISA to monitor cytokine production. Splenic T lymphocytes were isolated by negative selection (MACS, Miltinyi Biotec) and are stimulated with PMA, ConA or through the TCR with anti-CD3/anti-CD28 Dynabeads (Invitrogen) and collagen II (all non-TNFR receptors/pathways). […] Peritoneal and bone marrow-derived macrophages were isolated from CIA mice in the presence of M-CSF growth factor and were stimulated with TNF and CD40 ligand (CD40L). […] Splenic B lymphocytes were isolated by negative selection (MACS, Miltinyi Biotec) and were stimulated with BAFF (BLyS), CD40L or through the BCR with anti-IgM u-chain specific antibodies.

[2] = tested on: collagen-induced arthritis (CIA) joints; format: in vivo, DBA1/J mice; conditions: cross-sectioned ankle joints, CIA prevention groups
Experimental: FIG. 7. Cardiac glycosides reduce joint pathology in the CIA mouse model for rheumatoid arthritis. Blinded scoring was performed on histologic sections of joints harvested from mice at the end of a CIA prevention study (A-C). Joints derived from three representative mice belonging to each prevention group (A-C) were decalcified, fixed and stained with tolidine blue, followed by scoring by an examiner blinded to treatment status for the severity of synovitis (inflammation), pannus (growth of the synovial lining), and erosions of bone. (D-G) Joints derived from three representative mice belonging to each prevention group were decalcified, fixed, and stained with hematoxylin and eosin. Cross-sectioned ankle joints from vehicle (D), digitoxin (E), ouabain (F) and proscillaridin (G) treated mice are presented. Error bars represent SEM, and asterisks indicate P-values less than 0.05 by Mann-Whitney test.
In treatment studies, mice were randomly enrolled in treatment groups and treatment commenced when the average clinical score was at or above 2. […] Daily dosing commenced upon enrollment at the abovementioned concentrations. […] Double-blinded histopathology scoring was conducted of cross-sectioned joints taken from cardiac glycoside and vehicle recipients. […] The results obtained from these animal studies indicate that cardiac glycosides are effective at reducing the clinical manifestations of disease and reducing joint pathology in mice with collagen arthritis.
The effects of the different cardiac glycoside treatments on CIA pathology was analyzed by histological scoring. Inflammatory cell infiltrate, synovial hyperplasia, pannus formation and articular cartilage and bone deterioration were evaluated in sectioned paws of treated mice at specific time-points throughout the disease course. […] The ELISA was developed and read using BD ELISA development kit. […]

[3] = tested on: collagen-induced arthritis (CIA); format: in vivo, DBA1/J mice
[4] = tested on: splenocytes derived from mice with CIA; assay: CIA splenocyte proliferation (3H-thymidine incorporation); format: cell-based
Experimental: as §1

[5] = tested on: nuclear phospho-p65; assay: Western blot of nuclear phospho-p65 in CD40L-stimulated CIA B cells; format: cell-based, mice; conditions: 33 nM for 1 h, 50 ng/mL CD40L
Experimental: (§2) FIG. 8. […] Values represent mean light units produced. Error bars represent SEM, and statistical significance was determined by unpaired T-test. Single and double asterisks represent P-values of 0.01 or 0.001, respectively. […] Samples were harvested at designated time points and were fractionated into nuclear and cytoplasmic lysates (Pierce). Lysates were quantified using BCA (Pierce), and were equally loaded according to total protein. Membranes were probed for levels of nuclear phospho-p65 (ReIA), phospho-ReIB, and histone (histone served as loading control and fractionation method control) and cytoplasmic degradation of IκBα (beta-tubulin served as loading control and fractionation method control).
(§3) HeLa cells were co-transfected with the reporter pNFκB-luc and control vector pTAL (Renilla) for 18 h prior to incubation with 0-500 nM cardiac glycoside for 6 h. Cells are stimulated with 50 ng/mL TNF. […] FIG. 8 B).

[6] = tested on: T cell receptor; format: cell-based, mice; conditions: non-TNFR family member; therapeutic concentrations
[7] = tested on: TNFR; format: cell-based, mice; conditions: pre-treatment with 3.3 or 33 nM
[8] = tested on: TNF-mediated NFκB activity in HeLa cells; assay: NFκB luciferase reporter assay in TNF-stimulated HeLa cells; format: cell-based; conditions: pre-treatment 6 hours with 0-500 nM, 50 ng/mL TNF
Experimental: as §2, §3

[9] = tested on: B cells from CIA mice; assay: RT-PCR cytokine gene expression in cells purified from CIA mice; format: cell-based; conditions: 33 nM and 100 nM, 45 minutes
Experimental: IL-10 (FIG. 20 A) and TGFβ1 (FIG. 20 B) levels were quantified. Samples were normalized against Ywhaz1 and Hprt1 housekeeping genes. […] Samples were examined in triplicates and the error bars represent the SEM. […] After 30 minutes, cells were washed, lysed and mRNA was isolated with Trizol (Invitrogen). RT-PCR was performed on mRNA and samples were normalized against housekeeping genes, Ywhaz1 and Hprt1. Data represent the average fold change in IL-10 gene expression compared to media alone. Error bars represent SEM of triplicates.
RT-PCR was performed and TGFβ1, IL-10 and IL-6 mRNA levels were quantified. Sample cDNA levels were normalized against housekeeping genes Ywhaz1 and Hprt1. Data represent the average fold change in IL-10 gene expression compared to media alone. Error bars represent SEM of triplicates.
RT-PCR was performed and TGFβ1 and IL-10 levels were quantified and samples were normalized against Ywhaz1 and Hprt1. Data represent the average fold gene induction of triplicates and error bars represent SEM.

[10] = oral; cited from earlier work
[11] = daily i.p. from Mean Visual Score of 2, digitoxin 0.3 mg/kg, proscillaridin […], Mann-Whitney

## C[C@H]1O[C@@H](O[C@H]2[C@@H](O)C[C@H](O[C@H]3[C@@H](O)C[C@H](O[C@H]4CC[C@@]5(C)[C@H](CC[C@@H]6[C@@H]5CC[C@]5(C)[C@@H](C7=CC(=O)OC7)CC[C@]65O)C4)O[C@@H]3C)O[C@@H]2C)C[C@H](O)[C@@H]1O [Digitoxin, digitoxin]
[1]
  B cell receptor mediated B cell proliferation: did not inhibit
[2]
  immune cell infiltrate into the joints (hematoxylin and eosin): decreased amounts of immune cell infiltrate
[3]; 0.9 mg/kg digitoxin or 0.6 mg/kg ouabain, i.p., days −3, 0, 3, 6, 9, 12 after boost
  disease and inflammation (clinical score, paw thickness), dosing every three days i.p.: significantly less disease and inflammation
[3]; 0.9 mg/kg digitoxin or 0.6 mg/kg ouabain, sublingual, days −3, 0, 3, 6, 9, 12 after boost
  onset of collagen arthritis, dosing every three days sublingual: significantly inhibited the onset of collagen arthritis; also recorded: effective in preventing
[3]; [11]
  Mean Paw Thickness, treatment of established arthritis: statistically significant reductions
  Mean Visual Score, treatment of established arthritis: statistically significant reductions
[3]; daily i.p. from the day prior to induction, digitoxin 0.3 mg/kg, ouabain 0.03 mg/kg, proscillaridin […]
  development of CIA (Mean Visual Arthritis Score, Mean Paw Thickness), prevention study: prevented the development of CIA
[3]; mouse, in vivo
  average clinical arthritis scores compared to vehicle, prevention study: significantly reduced
[3]; murine model for rheumatoid arthritis, summary statement
  prevention and treatment of collagen-induced arthritis (CIA): potently prevent and treat
[4]
  proliferation of unstimulated or collagen II-stimulated splenocytes: inhibits the proliferation
[5]
  amount of nuclear phospho-p65 following CD40L stimulation: significantly reduced
[6]
  proliferation of T cells in response to stimulation through the T cell receptor: did not alter proliferation
[7]
  TNF-mediated activation of macrophage through TNFR: inhibits
[8]
  TNF-mediated NFκB activation (luciferase light units): reduced TNF-mediated NFκB activation in a dose-dependent fashion
[9]
  IL-6 mRNA expression in B cells: inhibit IL-6 expression
  IL-10 mRNA expression in B cells: induce
  TGFβ1 mRNA expression in B cells: induce
[10]
  oral bioavailability: > 90%
